Data taken from patent US20180206495A1, “SUBSTITUTED ARYL AND HETEROARYL CARBOXYLIC ACID HYDRAZIDES OR SALTS THEREOF AND USE THEREOF TO INCREASE STRESS TOLERANCE IN PLANTS” (BAYER CROPSCIENCE AKTIENGESELLSCHAFT, priority 2015, published 2018).

Tested on: Triticum aestivum
Test: In vivo analyses Part B: drought stress, spray application, appearance vs stressed control in categories, Triticum aestivum
Parameters: key: 0: no positive effect; +: slight positive effect; ++: clear positive effect; +++: strong positive effect
Settings: dosage 25 g/ha
Protocol: (§1) Seeds of monocotyledonous and dicotyledonous crop plants were sown in sandy loam in plastic pots, covered with soil or sand and cultivated in a greenhouse under good growth conditions. The test plants are treated at the early leaf stage (BBCH10-BBCH13). To assure uniform water supply before commencement of stress, the potted plants were supplied with water by dam irrigation prior to substance application. The inventive compounds were first formulated as wettable powders (WP) or dissolved in a solvent mixture. The further dilution was effected with water supplemented with 0.2% wetting agent (e.g. agrotin). The finished spray liquor was sprayed onto the green parts of the plant at an equivalent water application rate of 600 l/ha. Substance application was followed immediately by stress treatment of the plants. Drought stress was induced by gradual drying out under the following conditions: “Day”: 14 hours with illumination at ˜26-30° C. “Night”: 10 hours without illumination at ˜18-20° C. The duration of the respective stress phases was guided mainly by the condition of the stressed control plants. It was ended (by re-irrigating and transfer to a greenhouse with good growth conditions) as soon as irreversible damage was observed on the stressed control plants. The end of the stress phase was followed by an about 4-7-day recovery phase, during which the plants were once again kept under good growth conditions in a greenhouse. The duration of the recovery phase was guided mainly by when the trial plants had attained a state which enabled visual scoring of potential effects, and was therefore variable. Once this juncture had been reached, the appearance of the plants treated with test substances was recorded in comparison to the stressed control plants by the following categories: • 0 no positive effect • + slight positive effect • ++ clear positive effect • +++ strong positive effect In order to rule out any influence on the effects observed by any fungicidal or insecticidal action of the test compounds, it was additionally ensured that the tests proceeded without fungal infection or insect infestation. The values reported in tables B-1 and B-2 below are mean values of the results from at least three repeats. Effects of selected compounds of the general formula (I) under drought stress according to the following tables B-1 and B-2: […]

| SMILES | Effect (TRZAS) |
| --- | --- |
| COc1ccccc1C(=O)N(Cc1ncc(C(F)(F)F)cc1Cl)N(C)C [A8-36] | ++ |
| CN(C)N(Cc1ccccc1C#N)C(=O)c1ccc(Cl)cc1C(F)(F)F [A51-61] | + |
| CN(C)N(Cc1ccccc1Cl)C(=O)c1ccc(C(F)F)nc1 [B6-1] | ++ |
| CN(C)N(Cc1ccccn1)C(=O)c1cncnc1C(F)(F)F [E1-21] | + |
| CN(C)N(Cc1c(Cl)cc(C(F)(F)F)c(F)c1F)C(=O)c1ccc(F)cc1C(F)(F)F [A14-608] | + |
| CN(C1CCCCC1)N(Cc1ccccc1Cl)C(=O)c1cnccc1C(F)(F)F [B18-1] | ++ |
| CN(C)N(Cc1ccc(Cl)nc1Cl)C(=O)c1ccc(F)cc1C(F)(F)F [A14-99] | + |
| CN(C)N(Cc1cc(Cl)c(Cl)cc1Cl)C(=O)c1ccc(F)cc1C(F)(F)F [A14-138] | + |
| CN(C1CCCCC1)N(Cc1ccccn1)C(=O)c1cnccc1C(F)(F)F [B18-21] | + |
| CN(C)N(Cc1ccc(Cl)nc1)C(=O)c1ccc(C(F)(F)F)nc1 [B5-94] | + |
| CN(C)N(Cc1ccc(Cl)cc1Cl)C(=O)c1ccc(F)cc1C(F)(F)F [A14-5] | + |
| COc1ccccc1C(=O)N(Cc1ccc(Cl)nc1)N(C)C [A8-94] | + |

Same assay, conditions: dosage 100 g/ha

| SMILES | Effect (TRZAS) |
| --- | --- |
| CN(C)N(Cc1ccccc1C#N)C(=O)c1ccnnc1 [G1-61] | + |

Same assay, conditions: dosage 250 g/ha

| SMILES | Effect (TRZAS) |
| --- | --- |
| CN(C)N(Cc1ccccc1C(F)(F)F)C(=O)c1ccccc1I [A36-81] | + |
| CN(C)N(Cc1cccc(C#N)c1)C(=O)c1cnccc1C(F)(F)F [B1-62] | + |
| CN(C)N(Cc1c(Cl)cc(Cl)cc1Cl)C(=O)c1ccccc1I [A36-10] | + |
| CCN(CC)N(Cc1cccc(Cl)c1Cl)C(=O)c1ccccc1C(F)(F)F [A2-4, N-(2,3-Dichlorobenzyl)-N′,N′-diethyl-2-(trifluoromethyl)benzohydrazide] | + |
| CN(C)N(Cc1ccccc1Cl)C(=O)c1ccc(C(F)(F)F)nc1 [B5-1] | + |
| CN(C)N(Cc1ncc(C(F)(F)F)cc1Cl)C(=O)c1ccc(F)cc1F [A52-36] | + |
| CN(C)N(Cc1c(Cl)cccc1Cl)C(=O)c1cnccc1C(F)(F)F [B1-7] | + |
| CN(C)N(Cc1cccnc1C#N)C(=O)c1ccccc1I [A36-679] | + |
| CN(C1CCCCC1)N(Cc1ccccn1)C(=O)c1ccccc1C(F)(F)F [A47-21] | + |
| CN(C)N(Cc1ccc(F)cc1F)C(=O)c1cnccc1C(F)(F)F [B1-15] | + |
| CN(C)N(Cc1ccccc1Cl)C(=O)c1ccc(Cl)cc1C(F)(F)F [A51-1] | + |
| CN(C)N(Cc1ccc(Cl)nc1)C(=O)c1cncnc1C(F)(F)F [E1-94] | + |
| CN(C)N(Cc1ccc(Cl)nc1)C(=O)c1ccccc1C(F)(F)F [A1-94, N-[(6-Chloropyridin-3-yl)methyl]-N′,N′-dimethyl-2-(trifluoromethyl)benzohydrazide] | + |
| CN(C)N(Cc1ccc(C#N)cc1)C(=O)c1ccccc1I [A36-63] | + |
| CN(C)N(Cc1ccccc1C#N)C(=O)c1cncnc1C(F)(F)Cl [E3-61] | + |
| CCN(C)N(Cc1ccccc1C#N)C(=O)c1ccccc1C(F)(F)F [A5-61] | + |
| CN(C)N(Cc1c(Cl)cccc1Cl)C(=O)c1ccccc1I [A36-7] | + |
| CN(C)N(Cc1nccc(Cl)c1Cl)C(=O)c1ccccc1I [A36-40] | + |
| CN(C)N(Cc1ccc(Cl)nc1)C(=O)c1cnccc1C(F)(F)F [B1-94] | + |
| CCN(C)N(Cc1nccc(Cl)c1Cl)C(=O)c1cnccc1C(F)(F)F [B17-40] | + |
| CN(C)N(Cc1ccccn1)C(=O)c1ccc(C(F)F)nc1 [B6-21] | + |
| CCN(CC)N(Cc1ccccn1)C(=O)c1cnccc1C(F)(F)F [B2-21, N′,N′-Diethyl-N-(pyridin-2-ylmethyl)-4-(trifluoromethyl)nicotinohydrazide] | + |
| CN(C)N(Cc1ccccc1C(F)(F)F)C(=O)c1ccccc1Cl [A10-81] | + |
| CC(c1ccc(F)cc1)N(C(=O)c1ccccc1C(F)(F)F)N(C)C (stereo not drawn) [A1-159] | + |
| CN(C)N(Cc1ccccc1C#N)C(=O)c1ccc(C(F)F)nc1 [B6-61] | + |

Tested on: Brassica napus
Test: In vivo analyses Part B: drought stress, spray application, appearance vs stressed control in categories, Brassica napus
Parameters: key: 0: no positive effect; +: slight positive effect; ++: clear positive effect; +++: strong positive effect
Settings: dosage 25 g/ha
Protocol: as §1

| SMILES | Effect (BRSNS) |
| --- | --- |
| Cc1ccc(C(=O)N(Cc2ncc(C(F)(F)F)cc2Cl)N(C)C)c(C(F)(F)F)c1 [A50-36, N-[3-Chloro-5-(trifluoromethyl)pyridin-2-yl-methyl]-N′,N′-dimethyl-2-(trifluoromethyl)-4-methylbenzohydrazide] | + |
| CN(C)N(Cc1ncc(C(F)(F)F)cc1Cl)C(=O)c1ccc(F)cc1F [A52-36] | +++ |
| CN(C)N(Cc1ccccc1C#N)C(=O)c1ccc(Cl)cc1C(F)(F)F [A51-61] | ++ |
| CN(C)N(Cc1c(Cl)cc(C(F)(F)F)c(F)c1F)C(=O)c1ccc(F)cc1C(F)(F)F [A14-608] | + |
| CN(C)N(Cc1cc(Cl)c(Cl)cc1Cl)C(=O)c1ccc(F)cc1C(F)(F)F [A14-138] | + |
| CN(C)N(Cc1ncc(C(F)(F)F)cc1Cl)C(=O)c1ccc(C#N)cc1C(F)(F)F [A48-36] | ++ |
| CN(C)N(Cc1c(F)cccc1F)C(=O)c1ccccc1C(F)(F)F [A1-17] | ++ |
| Cc1ccc(C(=O)N(Cc2ccccc2C#N)N(C)C)c(C(F)(F)F)c1 [A50-61] | + |
| CN(C)N(Cc1cccc(C#N)c1)C(=O)c1ccccc1C(F)(F)F [A1-62] | ++ |

Same assay, conditions: dosage 100 g/ha

| SMILES | Effect (BRSNS) |
| --- | --- |
| CN(C)N(Cc1ccccc1C#N)C(=O)c1ccnnc1 [G1-61] | + |
| CN(C)N(Cc1ncc(C(F)(F)F)cc1Cl)C(=O)c1ccc(Cl)cc1Cl [A12-36] | + |

Same assay, conditions: dosage 250 g/ha

| SMILES | Effect (BRSNS) |
| --- | --- |
| CN(C)N(Cc1cccc(C#N)c1)C(=O)c1cnccc1C(F)(F)F [B1-62] | ++ |
| CN(C)N(Cc1ccc(Cl)nc1)C(=O)c1ccccc1Cl [A10-94] | + |
| CN(C)N(Cc1nccc(Cl)c1Cl)C(=O)c1ccccc1Cl [A10-40] | ++ |
| CN(C)N(Cc1cccnc1C#N)C(=O)c1cnccc1C(F)(F)F [B1-679] | ++ |
| CCN(C)N(Cc1ccccc1C#N)C(=O)c1cnccc1C(F)(F)F [B17-61] | + |
| CN(C)N(Cc1cccnc1C#N)C(=O)c1ccccc1Cl [A10-679] | ++ |
| CN(C)N(Cc1c(Cl)cccc1Cl)C(=O)c1cnccc1C(F)(F)F [B1-7] | +++ |
| CN(C)N(Cc1cccnc1C#N)C(=O)c1ccccc1I [A36-679] | + |
| CN(C)N(Cc1ccccn1)C(=O)c1ccc(C(F)(F)F)nc1 [B5-21] | + |
| CN(C)N(Cc1ccc(F)cc1F)C(=O)c1cnccc1C(F)(F)F [B1-15] | +++ |
| CN(C)N(Cc1ccc(Cl)nc1Cl)C(=O)c1ccc(F)cc1C(F)(F)F [A14-99] | + |
| CN(C)N(Cc1ncccn1)C(=O)c1ccccc1I [A36-27] | + |
| CN(C)N(Cc1c(Cl)c(Cl)c(C(F)(F)F)c(Cl)c1Cl)C(=O)c1ccc(F)cc1C(F)(F)F [A14-680] | ++ |
| CN(C)N(Cc1ccccc1C#N)C(=O)c1cnccc1C(F)(F)F [B1-61] | ++ |
| CN(C)N(Cc1nccc(Cl)c1Cl)C(=O)c1cnccc1C(F)(F)F [B1-40] | + |
| CN(C)N(Cc1c(Cl)cc(Cl)cc1Cl)C(=O)c1cnccc1C(F)(F)F [B1-10] | +++ |
| CN(C)N(Cc1c(F)cccc1F)C(=O)c1ccccc1Cl [A10-17] | + |
| COC(=O)c1ccccc1CN(C(=O)c1ccccc1C(F)(F)F)N(C)C [A1-603] | ++ |
| CN(C)N(Cc1ncccn1)C(=O)c1ccccc1C(F)(F)F [A1-27] | ++ |
| CN(C)N(Cc1ccccc1Cl)C(=O)c1ccccc1I [A36-1] | + |
| CN(C)N(Cc1ccc(C#N)cc1)C(=O)c1cnccc1C(F)(F)F [B1-63] | +++ |
| CN(C)N(Cc1ccc(Cl)cc1Cl)C(=O)c1cnccc1C(F)(F)F [B1-5] | +++ |
| CN(C)N(Cc1ccc(C#N)cc1)C(=O)c1ccccc1C(F)(F)F [A1-63] | + |
